According to the NIST ThermoML archive (doi:10.1021/je800942u):

How the values were obtained:
[1] = mn = molality of the nth substance listed, in mol/kg; conditions: 101 kPa, Liquid
[2] = 101 kPa, Liquid
[3] = wn = mass fraction of the nth substance listed; conditions: 101 kPa, Liquid

NCCCCCCN [1,6-hexanediamine] + CCO
[1]
Conditions	mass density [kg/m3]	viscosity [mPa·s]
303.15 K, m1 = 0.1293	782.3	1.011
303.15 K, m1 = 0.2808	784.2	1.053
303.15 K, m1 = 0.4406	786.3	1.102
303.15 K, m1 = 0.6113	788.6	1.162
303.15 K, m1 = 0.7834	791.1	1.202
303.15 K, m1 = 0.9637	793.8	1.258
308.15 K, m1 = 0.1293	777.9	0.9157
308.15 K, m1 = 0.2808	779.7	0.9505
308.15 K, m1 = 0.4406	781.9	0.9928
308.15 K, m1 = 0.6113	784.7	1.046
308.15 K, m1 = 0.7834	787.3	1.081
308.15 K, m1 = 0.9637	790.1	1.133
313.15 K, m1 = 0.1293	771.6	0.8341
313.15 K, m1 = 0.2808	773.3	0.8606
313.15 K, m1 = 0.4406	775.2	0.8994
313.15 K, m1 = 0.6113	777.2	0.9437
313.15 K, m1 = 0.7834	779.3	0.975
313.15 K, m1 = 0.9637	781.5	1.019
318.15 K, m1 = 0.1293	766.4	0.7569
318.15 K, m1 = 0.2808	767.9	0.7849
318.15 K, m1 = 0.4406	769.6	0.8154
318.15 K, m1 = 0.6113	771.4	0.8571
318.15 K, m1 = 0.7834	773.3	0.8816
318.15 K, m1 = 0.9637	775.3	0.9201
323.15 K, m1 = 0.1293	761.4	0.6866
323.15 K, m1 = 0.2808	762.8	0.7105
323.15 K, m1 = 0.4406	764.3	0.7356
323.15 K, m1 = 0.6113	766	0.7761
323.15 K, m1 = 0.7834	767.8	0.798
323.15 K, m1 = 0.9637	769.7	0.8301
328.15 K, m1 = 0.1293	755.5	0.6275
328.15 K, m1 = 0.2808	756.8	0.6485
328.15 K, m1 = 0.4406	758.3	0.6737
328.15 K, m1 = 0.6113	759.9	0.7013
328.15 K, m1 = 0.7834	761.6	0.7227
328.15 K, m1 = 0.9637	763.4	0.7564

CCO [ethanol]
[2]
Conditions	mass density [kg/m3]	viscosity [mPa·s]
303.15 K	780.8	0.979
308.15 K	776.5	0.8877
313.15 K	770.3	0.8086
318.15 K	765.2	0.7335
323.15 K	760.3	0.6677
328.15 K	754.5	0.6104

CCO [ethanol] + NCCCCCCN
[1], m2 = 0
Conditions	mass density [kg/m3]	viscosity [mPa·s]
303.15 K	780.8	0.979
308.15 K	776.5	0.8877
313.15 K	770.3	0.8086
318.15 K	765.2	0.7335
323.15 K	760.3	0.6677
328.15 K	754.5	0.6104

CCO [ethanol] + O
[3]
Conditions	mass density, w2 = 0.15 [kg/m3]	mass density, w2 = 0.2 [kg/m3]	mass density, w2 = 0.25 [kg/m3]	viscosity, w2 = 0.15 [mPa·s]	viscosity, w2 = 0.2 [mPa·s]	viscosity, w2 = 0.25 [mPa·s]
303.15 K	822.7	836	848.8	1.383	1.511	1.611
308.15 K	818.4	831.8	843	1.222	1.332	1.402
313.15 K	813.1	827.1	838.2	1.085	1.174	1.229
318.15 K	807.1	821	833.6	0.9649	1.025	1.085
323.15 K	801.4	814.6	827.5	0.8601	0.9113	0.9573
328.15 K	796.9	809.1	822.5	0.7734	0.8123	0.8538
